Assay results published in PubChem BioAssay (NCI).
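Exposure lasted 48 hours, with cells grown in 96-well plates and compounds tested at five concentrations. TGI marks complete inhibition of growth.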

Columns and labels:
Assay in all cases: NCI anticancer screen, dose series, 48 h
[1] = tested on: OVCAR-3 ovarian
[2] = tested on: MDA-MB-435
[3] = tested on: OVCAR-4 ovarian
[4] = tested on: NCI-H23 lung
[5] = tested on: NCI-H460 lung
[6] = tested on: HS 578T breast
[7] = tested on: BT-549 breast
[8] = tested on: IGROV1 ovarian
[9] = tested on: MDA-N
[10] = tested on: SK-OV-3 ovarian
[11] = tested on: OVCAR-8 ovarian
[12] = tested on: SF-539 CNS
[13] = tested on: SNB-75 CNS
[14] = tested on: CAKI-1 renal
[15] = tested on: EKVX NSCLC
[16] = tested on: SR leukemia
[17] = tested on: HT29 colon
[18] = tested on: UACC-257 melanoma
[19] = tested on: NCI-H522 lung
[20] = tested on: ACHN renal
[21] = tested on: OVCAR-5 ovarian
[22] = tested on: T-47D breast
[23] = tested on: NCI-H226 lung
[24] = tested on: CCRF-CEM leukemia
[25] = tested on: PC-3 prostate
[26] = tested on: HOP-62 NSCLC
[27] = tested on: SF-295 CNS
[28] = tested on: SF-268 CNS
[29] = tested on: HCC-2998 colon
[30] = tested on: COLO 205 colon
[31] = tested on: SW-620 colon
[32] = tested on: A549 NSCLC
[33] = tested on: MOLT-4 leukemia
[34] = tested on: HOP-92 NSCLC
[35] = tested on: UACC-62 melanoma
[36] = tested on: NCI/ADR-RES ovarian
[37] = tested on: HCT-116 colon
[38] = tested on: U251 CNS
[39] = tested on: HCT-15 colon
[40] = tested on: DU-145 prostate
[41] = tested on: K-562 leukemia
[42] = tested on: RXF 393 renal
[43] = tested on: KM12 colon
[44] = tested on: SK-MEL-5 melanoma
[45] = tested on: SNB-19 CNS
[46] = tested on: UO-31 renal
[47] = tested on: SK-MEL-2 melanoma
[48] = tested on: LOX IMVI melanoma
[49] = tested on: SK-MEL-28 melanoma
[50] = tested on: MCF7 breast
[51] = tested on: TK-10 renal
[52] = tested on: A498 renal
[53] = tested on: HL-60(TB) leukemia
[54] = tested on: 786-0 renal
[55] = tested on: M14 melanoma
[56] = tested on: MDA-MB-231 breast
[57] = tested on: SN12C renal
[58] = tested on: MALME-3M melanoma
[59] = tested on: RPMI-8226 leukemia

## CC[C@]12C=CCN3CC[C@@]4(c5cc(N=O)c(OC)cc5N(C)[C@H]4[C@@](O)(C(=O)NC(Cc4c[nH]c5ccccc45)C(=O)OC)[C@@H]1O)[C@@H]32 (stereo partly specified)
[1]
  TGI: 28.6 µM
[2]
  TGI: 33.3 µM
[3]
  TGI: 29.2 µM
[4]
  TGI: 38.5 µM
[5]
  TGI: 38.7 µM
[6]
  TGI: > 100 µM
[7]
  TGI: 29.8 µM
[8]
  TGI: 34.9 µM
[9]
  TGI: 46.6 µM
[10]
  TGI: 38.9 µM
[11]
  TGI: 42.6 µM
[12]
  TGI: 30.5 µM
[13]
  TGI: 29.4 µM
[14]
  TGI: 31.9 µM
[15]
  TGI: 52.2 µM
[16]
  TGI: 54.7 µM
[17]
  TGI: 29.3 µM
[18]
  TGI: 29.6 µM
[19]
  TGI: 6.75 µM
[20]
  TGI: 35.5 µM
[21]
  TGI: 43.1 µM
[22]
  TGI: 32 µM
[23]
  TGI: 52.4 µM
[24]
  TGI: 24.3 µM
[25]
  TGI: 23.9 µM
[26]
  TGI: 34.6 µM
[27]
  TGI: 32.7 µM
[28]
  TGI: > 100 µM
[29]
  TGI: 29 µM
[30]
  TGI: 29.2 µM
[31]
  TGI: 29.7 µM
[32]
  TGI: > 100 µM
[33]
  TGI: 27.9 µM
[34]
  TGI: 28.8 µM
[35]
  TGI: 29.6 µM
[36]
  TGI: > 100 µM
[37]
  TGI: 28.3 µM
[38]
  TGI: 21.7 µM
[39]
  TGI: 44.7 µM
[40]
  TGI: 30.9 µM
[41]
  TGI: 31.4 µM
[42]
  TGI: 26.9 µM
[43]
  TGI: 26.1 µM
[44]
  TGI: 28 µM
[45]
  TGI: 71.3 µM
[46]
  TGI: 45.3 µM
[47]
  TGI: 34.1 µM
[48]
  TGI: 47 µM
[49]
  TGI: 86.8 µM
[50]
  TGI: 35.2 µM
[51]
  TGI: 31.7 µM
[52]
  TGI: > 100 µM
[53]
  TGI: 14.7 µM
[54]
  TGI: > 100 µM
[55]
  TGI: 41.1 µM
[56]
  TGI: 34.7 µM
[57]
  TGI: 71.5 µM
[58]
  TGI: 34.8 µM

## CO[C@@H]1C[C@H](OC(N)=O)[C@@H]2C=C[C@@H]3/C=C(C)/C=C/[C@@H](C)[C@H]([C@H](C)[C@H](O)[C@@H](C)NC(C)=O)OC(=O)/C=C/C=C(C)\C=C\[C@]3(C)[C@@H]2C1
[1]
  TGI: 3.65 µM
[2]
  TGI: 4.36 µM
[3]
  TGI: 9.75 µM
[4]
  TGI: 13.1 µM
[5]
  TGI: 1.58 µM
[6]
  TGI: 0.264 µM
[7]
  TGI: > 28.5 µM
[8]
  TGI: 3.28 µM
[9]
  TGI: 6.03 µM
[10]
  TGI: 3.66 µM
[11]
  TGI: 13.6 µM
[12]
  TGI: 1.46 µM
[14]
  TGI: 2.67 µM
[15]
  TGI: 5.34 µM
[16]
  TGI: 0.887 µM
[17]
  TGI: 1.93 µM
[18]
  TGI: 3.04 µM
[19]
  TGI: 1.44 µM
[20]
  TGI: 2.67 µM
[21]
  TGI: 9.19 µM
[22]
  TGI: 11 µM
[23]
  TGI: < 0.01 µM
[25]
  TGI: 10.8 µM
[26]
  TGI: 4.81 µM
[27]
  TGI: 1.51 µM
[28]
  TGI: 4.95 µM
[29]
  TGI: 1.39 µM
[30]
  TGI: 11.1 µM
[31]
  TGI: 10.3 µM
[32]
  TGI: 10 µM
[34]
  TGI: < 0.01 µM
[35]
  TGI: 1.4 µM
[36]
  TGI: 6.11 µM
[37]
  TGI: 1.25 µM
[38]
  TGI: 1.61 µM
[39]
  TGI: 6.77 µM
[40]
  TGI: 9.01 µM
[42]
  TGI: 3.06 µM
[45]
  TGI: 17.7 µM
[46]
  TGI: 0.645 µM
[47]
  TGI: 7.09 µM
[48]
  TGI: < 0.01 µM
[49]
  TGI: 1.84 µM
[50]
  TGI: 11.3 µM
[51]
  TGI: 3.55 µM
[59]
  TGI: 3.78 µM
[52]
  TGI: 0.496 µM
[53]
  TGI: 3.32 µM
[54]
  TGI: 6.62 µM
[55]
  TGI: 1.62 µM
[56]
  TGI: 0.0634 µM
[57]
  TGI: 8.72 µM
[58]
  TGI: 3.53 µM
